According to ChEMBL document CHEMBL6177995, “In Silico Discovery of Novel Potent Trace Amine-Associated Receptor TAAR1 Agonists as Promising Drug Candidates for the Treatment of Schizophrenia” (J Med Chem, 2025):

How the values were obtained:
[1] = Toxicity in male C57BL/6J mouse assessed as catalepsy by measuring extrapyramidal symptoms at 3 mg/kg, ip measured after 30 to 60 mins by bar test; type: organism-based; conditions: in vivo, time 30-60 min
[2] = Acute toxicity in Kunming mouse assessed as effect on liver co-efficient at 1000 mg/kg, po administered as single dose and measured after 7 days; type: organism-based; conditions: in vivo, 168 h, time 7 day
[3] = Subacute toxicity in Kunming mouse assessed as pathological changes in heart at 50 mg/kg, po administered every two days for 14 days by H and E staining based analysis; type: organism-based; conditions: in vivo, 336 h, time 14 day
[4] = Tmax in Sprague-Dawley rat at 10 mg/kg, po measured after 8 hrs by LC-MS/MS analysis; type: ADME, organism-based; conditions: in vivo
[5] = biological target: T1, Trace amine-associated receptor 1 (Homo sapiens) (UniProt Q96RJ0); test: Potency index, ratio of SEP-363856 EC50 to test compound EC50 for agonist activity at TAAR1 (unknown origin) transfected in HEK293 cells co-transfected with GalphaS-Nluc, Gbeta1/3 and Ggamma1/2/9-mVenus assessed as GalphaS-Gbeta/gamma dissociation by BRET assay; type: functional, cell-based; conditions: filed as agonist
T1 sequence (whole entry): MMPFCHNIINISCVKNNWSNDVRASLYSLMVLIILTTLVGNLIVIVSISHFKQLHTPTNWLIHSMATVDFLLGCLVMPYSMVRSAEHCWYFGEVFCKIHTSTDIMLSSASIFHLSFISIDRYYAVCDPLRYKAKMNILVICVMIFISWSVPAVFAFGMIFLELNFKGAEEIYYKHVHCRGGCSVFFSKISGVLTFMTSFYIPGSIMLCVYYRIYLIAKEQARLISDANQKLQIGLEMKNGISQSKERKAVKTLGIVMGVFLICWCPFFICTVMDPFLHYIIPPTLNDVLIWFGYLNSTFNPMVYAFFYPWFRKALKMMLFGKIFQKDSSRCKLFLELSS

[6] = AUC (0 to infinity) in Sprague-Dawley rat at 10 mg/kg, po measured after 8 hrs by LC-MS/MS analysis; type: ADME, organism-based; conditions: in vivo
[7] = Subacute toxicity in Kunming mouse assessed as effect on lung coefficient at 50 mg/kg, po administered every two days for 14 days; type: organism-based; conditions: in vivo, 336 h, time 14 day
Mus musculus [8] = test: Antipsychotic activity in MK-801 induced male C57BL/6J mouse model assessed as locomotion at 10 mg/kg, po preadministered for 30 mins followed by MK801 administration for 30 mins and measured after 10 mins by open field test (reference value: 8631.5 cm); type: functional; conditions: time 70 min, 1.167 h
[9] = Aqueous solubility of compound at pH 7.4; type: physicochemical; conditions: aqueous solution
[10] = Acute toxicity in Kunming mouse assessed as effect on body weight at 1000 mg/kg, po administered as single dose and measured after 7 days; type: organism-based; conditions: in vivo, 168 h, time 7 day
[11] = biological target: T2, Trace amine-associated receptor 1 (Homo sapiens, UniProt Q96RJ0); test: Agonist activity at TAAR1 (unknown origin) transfected in HEK293 cells co-transfected with GalphaS-Nluc, Gbeta1/3 and Ggamma1/2/9-mVenus assessed as GalphaS-Gbeta/gamma dissociation by BRET assay; type: functional, cell-based
T2 sequence (Q96RJ0 whole entry): T1 sequence (whole entry)

[12] = Subacute toxicity in Kunming mouse assessed as effect on kidney coefficient at 50 mg/kg, po administered every two days for 14 days; type: organism-based; conditions: in vivo, 336 h, time 14 day
[13] = Toxicity in male C57BL/6J mouse assessed as catalepsy performance at 30 mg/kg, ip measured after 30 to 60 mins by bar test; type: organism-based; conditions: in vivo, time 30-60 min
[14] = Acute toxicity in Kunming mouse assessed as effect on heart co-efficient at 1000 mg/kg, po administered as single dose and measured after 7 days; type: organism-based; conditions: in vivo, 168 h, time 7 day
[15] = Aqueous solubility of compound at pH 7.0; type: physicochemical; conditions: aqueous solution
[16] = Acute toxicity in Kunming mouse assessed as abnormalities at 1000 mg/kg, po administered as single dose and measured after 7 days; type: organism-based; conditions: in vivo, 168 h, time 7 day
Mus musculus [17] = test: Antipsychotic activity in MK-801 induced male C57BL/6J mouse model assessed as improvement in recognition deficit performance by measuring discrimination index at 3 mg/kg, po pre-administered with MK-801 as twice daily days for 7 days followed by 1 week of washout period and measured after 1 hrs of compound administration by novel object recognition test (reference value: 0.37); type: functional
[18] = Subacute toxicity in Kunming mouse assessed as animal death at 50 mg/kg, po administered every two days for 14 days; type: organism-based; conditions: in vivo, 336 h, time 14 day
[19] = Metabolic stability in human liver microsomes assessed as intrinsic clearance preincubated for 60 mins followed by NADPH addition and measured after 60 mins by LC-MS/MS analysis; type: ADME, Microsome; conditions: time 120 min, read-out: CLH
[20] = Subacute toxicity in Kunming mouse assessed as effect on liver coefficient at 50 mg/kg, po administered every two days for 14 days; type: organism-based; conditions: in vivo, 336 h, time 14 day
[21] = Clearance in Sprague-Dawley rat at 2 mg/kg, iv measured after 8 hrs by LC-MS/MS analysis; type: ADME, organism-based; conditions: in vivo
[22] = Acute toxicity in Kunming mouse assessed as animal death at 1000 mg/kg, po administered as single dose and measured after 7 days; type: organism-based; conditions: in vivo, 168 h, time 7 day
[23] = Subacute toxicity in Kunming mouse assessed as effect on body weight at 50 mg/kg, po administered every two days for 14 days; type: organism-based; conditions: in vivo, 336 h, time 14 day
[24] = biological target: T2, Trace amine-associated receptor 1; test: Agonist activity at TAAR1 (unknown origin) transfected in HEK293 cells co-transfected with Galphaq-Nluc, Gbeta1/3 and Ggamma1/2/9-mVenus assessed as Galphaq-Gbeta/gamma dissociation by BRET assay; type: functional, cell-based
[25] = Aqueous solubility of compound at pH 2.0; type: physicochemical; conditions: aqueous solution
[26] = Cmax in Sprague-Dawley rat at 10 mg/kg, po measured after 8 hrs by LC-MS/MS analysis; type: ADME, organism-based; conditions: in vivo
[27] = AUC (0 to t) in Sprague-Dawley rat at 2 mg/kg, iv measured after 8 hrs by LC-MS/MS analysis; type: ADME, organism-based; conditions: in vivo
[28] = Half-life in Sprague-Dawley rat at 10 mg/kg, po measured after 8 hrs by LC-MS/MS analysis; type: ADME, organism-based; conditions: in vivo
[29] = AUC (0 to infinity) in Sprague-Dawley rat at 2 mg/kg, iv measured after 8 hrs by LC-MS/MS analysis; type: ADME, organism-based; conditions: in vivo
[30] = Subacute toxicity in Kunming mouse assessed as pathological changes in kidney at 50 mg/kg, po administered every two days for 14 days by H and E staining based analysis; type: organism-based; conditions: in vivo, 336 h, time 14 day
[31] = AUC (0 to t) in Sprague-Dawley rat at 10 mg/kg, po measured after 8 hrs by LC-MS/MS analysis; type: ADME, organism-based; conditions: in vivo
[32] = Acute toxicity in Kunming mouse assessed as effect on kidney co-efficient at 1000 mg/kg, po administered as single dose and measured after 7 days; type: organism-based; conditions: in vivo, 168 h, time 7 day
[33] = Subacute toxicity in Kunming mouse assessed as effect on spleen coefficient at 50 mg/kg, po administered every two days for 14 days; type: organism-based; conditions: in vivo, 336 h, time 14 day
[34] = Acute toxicity in Kunming mouse assessed as effect on lung co-efficient at 1000 mg/kg, po administered as single dose and measured after 7 days; type: organism-based; conditions: in vivo, 168 h, time 7 day
[35] = Tmax in Sprague-Dawley rat at 2 mg/kg, iv measured after 8 hrs by LC-MS/MS analysis; type: ADME, organism-based; conditions: in vivo
[36] = Toxicity in male C57BL/6J mouse assessed as effect on locomotion at 1 to 10 mg/kg, po administered for 30 mins and measured after 10 mins by open field test; type: organism-based; conditions: in vivo, 40 min, dose 1-10 mg/kg
[37] = Subacute toxicity in Kunming mouse assessed as pathological changes in lung at 50 mg/kg, po administered every two days for 14 days by H and E staining based analysis; type: organism-based; conditions: in vivo, 336 h, time 14 day
[38] = Subacute toxicity in Kunming mouse assessed as pathological changes in spleen at 50 mg/kg, po administered every two days for 14 days by H and E staining based analysis; type: organism-based; conditions: in vivo, 336 h, time 14 day
[39] = Subacute toxicity in Kunming mouse assessed as effect on heart coefficient at 50 mg/kg, po administered every two days for 14 days; type: organism-based; conditions: in vivo, 336 h, time 14 day
Mus musculus [40] = test: Antipsychotic activity in MK-801 induced male C57BL/6J mouse model assessed as reduction in hyperlocomotion preadministered orally for 30 mins followed by MK801 administration for 30 mins and measured after 10 mins by open field test; type: functional, organism-based; conditions: dose 1-10 mg/kg, route po, time 70.0 min
[41] = Acute toxicity in Kunming mouse assessed as effect on spleen co-efficient at 1000 mg/kg, po administered as single dose and measured after 7 days; type: organism-based; conditions: in vivo, 168 h, time 7 day
[42] = Cmax in Sprague-Dawley rat at 2 mg/kg, iv measured after 8 hrs by LC-MS/MS analysis; type: ADME, organism-based; conditions: in vivo
[43] = Subacute toxicity in Kunming mouse assessed as abnormalities at 50 mg/kg, po administered every two days for 14 days; type: organism-based; conditions: in vivo, 336 h, time 14 day
[44] = Oral bioavailability in Sprague-Dawley rat at 10 mg/kg measured after 8 hrs by LC-MS/MS analysis; type: ADME, organism-based; conditions: in vivo
[45] = Subacute toxicity in Kunming mouse assessed as pathological changes in liver at 50 mg/kg, po administered every two days for 14 days by H and E staining based analysis; type: organism-based; conditions: in vivo, 336 h, time 14 day
[46] = Metabolic stability in human liver microsomes assessed as half-life preincubated for 60 mins followed by NADPH addition and measured after 60 mins by LC-MS/MS analysis; type: ADME, Microsome; conditions: time 120 min
[47] = Half-life in Sprague-Dawley rat at 2 mg/kg, iv measured after 8 hrs by LC-MS/MS analysis; type: ADME, organism-based; conditions: in vivo

## O=C(CCCN1CCC(O)(c2ccc(Cl)cc2)CC1)c1ccc(F)cc1 [HALOPERIDOL]
[1]
  Activity: Toxic

## COc1cccc(S(=O)(=O)NC[C@@H]2CCCN2)c1.Cl
[2]
  Activity: Non-toxic
[3]
  Activity: Non-toxic
[4]
  Tmax: 25.2 min
[5]
  Ratio EC50: 3.5
[6]
  AUC(0-inf): 240 ng·h/mL
[7]
  Activity: Non-toxic
Mus musculus [8]
  Activity: 3917.8 cm
[9]
  solubility: 43.3 mg/mL
[10]
  Activity: Non-toxic
[11]
  EC50: 6.1 nM
[12]
  Activity: Non-toxic
[13]
  Activity: Non-toxic
[14]
  Activity: Non-toxic
[15]
  solubility: 65.7 mg/mL
[16]
  Activity: Non-toxic
Mus musculus [17]
  Activity_index: 0.48
[18]
  Activity: Non-toxic
[19]
  microsomal CLint: 11 µL/min/mg
[20]
  Activity: Non-toxic
[21]
  clearance: 94.1 mL/min/kg
[22]
  Activity: Non-toxic
[23]
  Activity: Non-toxic
[24]
  EC50: 14.8 nM
[25]
  solubility: 96.2 mg/mL
[26]
  Cmax: 63.7 ng/mL
[27]
  AUC(0-t) at 8 h: 355 ng·h/mL
[28]
  half-life: 91.8 min
[29]
  AUC(0-inf): 356 ng·h/mL
[30]
  Activity: Non-toxic
[31]
  AUC(0-t) at 8 h: 229 ng·h/mL
[32]
  Activity: Non-toxic
[33]
  Activity: Non-toxic
[34]
  Activity: Non-toxic
[35]
  Tmax: 1.8 min
[36]
  Activity: Non-toxic
[37]
  Activity: Non-toxic
[38]
  Activity: Non-toxic
[39]
  Activity: Non-toxic
Mus musculus [40]
  Activity: Dose-dependent-effect
[41]
  Activity: Non-toxic
[42]
  Cmax: 746 ng/mL
[43]
  Activity: Non-toxic
[44]
  bioavailability: 13.4%
[45]
  Activity: Non-toxic
[46]
  half-life: 126 min
[47]
  half-life: 21 min
